Assay results: patent publication US20220251141A1, “IMMUNOMODULATORS” (Bristol-Myers Squibb Company, priority 2019, published 2022)
Structures can show the parent of a compound that is named as a salt. Numbered stars: 1 amine (or outer) side, 2 acyl side, 3 side chain; on linkers, the order of the positions; unused ones are H or OH. Bridge positions count the residues as written; N and C are the ends. Square brackets hold non-standard residues; d marks the D form. Side chains are listed from the residue outwards. Peptide text beside a SMILES is read from it. * marks the point of attachment. X6 = CC(C)C[C@H](N[*:1])C(=O)C1C[C@H](O)C[C@H]1C(=O)[*:2]; Trp(1-CH2CO2Me) = COC(=O)Cn1cc(C[C@H](N)C(=O)O)c2ccccc21; Trp(1-CH2COOH) = N[C@@H](Cc1cn(CC(=O)O)c2ccccc12)C(=O)O; NHCH2CH2Ph(3,4-OCH2O) = c1cc2c(cc1CCN*)OCO2; NH(1R-phenylethyl) = C[C@@H](N*)c1ccccc1; Phe(4-F) = N[C@@H](Cc1ccc(F)cc1)C(=O)O; NHCH2CHPh2 = c1ccc(C(CN*)c2ccccc2)cc1; Dab(CONH2) = NC(=O)NCC[C@H](N)C(=O)O; Hyp = O=C(O)[C@@H]1C[C@@H](O)CN1; NHcycloheptyl = C1CCCC(N*)CC1; NMeNle = CCCC[C@H](NC)C(=O)O; NMeC = CN[C@@H](CS)C(=O)O; Pip = O=C(O)[C@@H]1CCCCN1; NMeA = CN[C@@H](C)C(=O)O; X7 = COc1ccc(CN*)c(OC)c1; Dab = NCC[C@H](N)C(=O)O; Dap = NC[C@H](N)C(=O)O; NH(heptyl) = CCCCCCCN*; Boc = CC(C)(C)OC(=O)*; CO = O=C([*:1])[*:2]; Tfa = O=C(C(F)(F)F)*

biological target: T1, PD-1/PD-L1 (Homo sapiens, UniProt Q9NZQ7); experiment: PD-1/PD-L1 Homogenous Time-Resolved Fluorescence (HTRF) binding assay; details: PD-L1-His 10 nM final, PD-1-Ig 20 nM final; inhibitors pre-incubated with PD-L1-His for 15 m
T1 construct: TVMV protease site linker (C); made in house; host or cells: HEK293T cells
In short: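 Compounds pre-incubated 15 min with human PD-L1(18-239)-His (10 nM final), then PD-1(25-167)-Ig (20 nM final) added for 15 min, in dPBS with 0.1% BSA and 0.05% Tween-20. Eu-cryptate anti-Ig (1 nM) and APC anti-His (20 nM) added, 30 min equilibration, 665/620 nm ratio read; IC50 reported.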

SMILES | IC50 [nM]
CCCC[C@H]1C(=O)N(C)[C@@H](CCCC)C(=O)N[C@@H](CC(C)C)C(=O)N[C@H](C(=O)NCC(N)=O)CSCC(=O)N[C@@H](Cc2ccc(O)cc2)C(=O)N(C)[C@@H](C)C(=O)N[C@@H](CC(N)=O)C(=O)N2CCC[C@H]2C(=O)N[C@@H](CNC(=O)NCC(c2ccccc2)c2ccccc2)C(=O)N[C@@H](CC(C)C)C(=O)N2C[C@H](O)C[C@H]2C(=O)N[C@@H](Cc2c[nH]c3ccccc23)C(=O)N[C@@H](CCNC(=O)NCC(c2ccccc2)c2ccccc2)C(=O)N[C@@H](Cc2cn(CC(=O)O)c3ccccc23)C(=O)N1C [Example 1042] ({CH2CO}-Y[NMeA]NP[Dap]([CO-NHCH2CHPh2])L[Hyp]W[Dab]([CO-NHCH2CHPh2])[Trp(1-CH2COOH)][NMeNle][NMeNle]LCG-NH2; thioether N-14) | 11.4
CCCC[C@H]1C(=O)N(C)[C@@H](CCCC)C(=O)N[C@@H](CC(C)C)C(=O)N[C@H](C(=O)NCC(N)=O)CSCC(=O)N[C@@H](Cc2ccc(O)cc2)C(=O)N(C)[C@@H](C)C(=O)N[C@@H](CC(N)=O)C(=O)N2CCC[C@H]2C(=O)N[C@@H](CNC(=O)NCc2ccc(OC)cc2OC)C(=O)N[C@@H](CC(C)C)C(=O)N2C[C@H](O)C[C@H]2C(=O)N[C@@H](Cc2c[nH]c3ccccc23)C(=O)N[C@@H](CCN)C(=O)N[C@@H](Cc2cn(CC(=O)O)c3ccccc23)C(=O)N1C [Example 1043] ({CH2CO}-Y[NMeA]NP[Dap]([CO-X7])L[Hyp]W[Dab][Trp(1-CH2COOH)][NMeNle][NMeNle]LCG-NH2; thioether N-14) | 3
CCCC[C@H]1C(=O)N(C)[C@@H](CCCC)C(=O)N[C@@H](CC(C)C)C(=O)N[C@H](C(=O)NCC(N)=O)CSCC(=O)N[C@@H](Cc2ccc(O)cc2)C(=O)N(C)[C@@H](C)C(=O)N[C@@H](CC(N)=O)C(=O)N2CCC[C@H]2C(=O)N[C@@H](CNC(=O)NCc2ccc(OC)cc2OC)C(=O)N[C@@H](CC(C)C)C(=O)N2C[C@H](O)C[C@H]2C(=O)N[C@@H](Cc2c[nH]c3ccccc23)C(=O)N[C@@H](CCNC(=O)NCc2ccc(OC)cc2OC)C(=O)N[C@@H](Cc2cn(CC(=O)O)c3ccccc23)C(=O)N1C [Example 1044] ({CH2CO}-Y[NMeA]NP[Dap]([CO-X7])L[Hyp]W[Dab]([CO-X7])[Trp(1-CH2COOH)][NMeNle][NMeNle]LCG-NH2; thioether N-14) | 2.6
CCCC[C@H]1C(=O)N(C)[C@@H](CCCC)C(=O)N[C@@H](CC(C)C)C(=O)N[C@H](C(=O)NCC(N)=O)CSCC(=O)N[C@@H](Cc2ccc(O)cc2)C(=O)N(C)[C@@H](C)C(=O)N[C@@H](CC(N)=O)C(=O)N2CCC[C@H]2C(=O)N[C@@H](CNC(=O)NC2CCCCCC2)C(=O)N[C@@H](CC(C)C)C(=O)N2C[C@H](O)C[C@H]2C(=O)N[C@@H](Cc2c[nH]c3ccccc23)C(=O)N[C@@H](CCNC(=O)NC2CCCCCC2)C(=O)N[C@@H](Cc2cn(CC(=O)O)c3ccccc23)C(=O)N1C [Example 1045] ({CH2CO}-Y[NMeA]NP[Dap]([CO-NHcycloheptyl])L[Hyp]W[Dab]([CO-NHcycloheptyl])[Trp(1-CH2COOH)][NMeNle][NMeNle]LCG-NH2; thioether N-14) | 4.6
CCCC[C@H]1C(=O)N(C)[C@@H](CCCC)C(=O)N[C@@H](CC(C)C)C(=O)N[C@H](C(=O)NCC(N)=O)CSCC(=O)N[C@@H](Cc2ccc(O)cc2)C(=O)N(C)[C@@H](C)C(=O)N[C@@H](CC(N)=O)C(=O)N2CCC[C@H]2C(=O)N[C@@H](CNC(=O)NCCc2ccc3c(c2)OCO3)C(=O)N[C@@H](CC(C)C)C(=O)N2C[C@H](O)C[C@H]2C(=O)N[C@@H](Cc2c[nH]c3ccccc23)C(=O)N[C@@H](CCNC(=O)NCCc2ccc3c(c2)OCO3)C(=O)N[C@@H](Cc2cn(CC(=O)O)c3ccccc23)C(=O)N1C [Example 1048] ({CH2CO}-Y[NMeA]NP[Dap]([CO-NHCH2CH2Ph(3,4-OCH2O)])L[Hyp]W[Dab]([CO-NHCH2CH2Ph(3,4-OCH2O)])[Trp(1-CH2COOH)][NMeNle][NMeNle]LCG-NH2; thioether N-14) | 1.1
CCCC[C@H]1C(=O)N(C)[C@@H](CCCC)C(=O)N[C@@H](CC(C)C)C(=O)N[C@H](C(=O)NCC(N)=O)CSCC(=O)N[C@@H](Cc2ccc(O)cc2)C(=O)N(C)[C@@H](C)C(=O)N[C@@H](CC(N)=O)C(=O)N2CCC[C@H]2C(=O)N[C@@H](CNC(=O)OC(C)(C)C)C(=O)N[C@@H](CC(C)C)C(=O)C2C[C@H](O)C[C@H]2C(=O)N[C@@H](Cc2c[nH]c3ccccc23)C(=O)N[C@@H](CCNC(N)=O)C(=O)N[C@@H](Cc2cn(CC(=O)OC)c3ccccc23)C(=O)N1C (stereo partly shown) [Example 2001] ({CH2CO}-Y[NMeA]NP[Dap](Boc)[X6]W[Dab(CONH2)][Trp(1-CH2CO2Me)][NMeNle][NMeNle]LCG-NH2; thioether N-13) | 3.4
CCCC[C@H]1C(=O)N(C)[C@@H](CCCC)C(=O)N[C@@H](CC(C)C)C(=O)N[C@H](C(=O)NCC(N)=O)CSCC(=O)N[C@@H](Cc2ccc(O)cc2)C(=O)N(C)[C@@H](C)C(=O)N[C@@H](CC(N)=O)C(=O)N2CCC[C@H]2C(=O)N[C@@H](CNC(=O)OC(C)(C)C)C(=O)N[C@@H](CC(C)C)C(=O)C2C[C@H](O)C[C@H]2C(=O)N[C@@H](Cc2c[nH]c3ccccc23)C(=O)N[C@@H](CCNC(=O)OC(C)(C)C)C(=O)N[C@@H](Cc2cn(CC(=O)OC)c3ccccc23)C(=O)N1C (stereo partly shown) [Example 2002] ({CH2CO}-Y[NMeA]NP[Dap](Boc)[X6]W[Dab](Boc)[Trp(1-CH2CO2Me)][NMeNle][NMeNle]LCG-NH2; thioether N-13) | 1.2
CCCCCCCNC(=O)NCC[C@@H]1NC(=O)[C@H](Cc2c[nH]c3ccccc23)NC(=O)[C@@H]2C[C@@H](O)CN2C(=O)[C@H](CC(C)C)NC(=O)[C@H](CNC(=O)NCCCCCCC)NC(=O)[C@@H]2CCCN2C(=O)[C@H](CC(N)=O)NC(=O)[C@H](C)N(C)C(=O)[C@H](Cc2ccc(O)cc2)NC(=O)CSC[C@@H](C(=O)NCC(N)=O)NC(=O)[C@H](CC(C)C)NC(=O)[C@H](CCCC)N(C)C(=O)[C@H](CCCC)N(C)C(=O)[C@H](Cc2cn(CC(=O)OC)c3ccccc23)NC1=O [Example 2003] ({CH2CO}-Y[NMeA]NP[Dap]([CO-NH(heptyl)])L[Hyp]W[Dab]([CO-NH(heptyl)])[Trp(1-CH2CO2Me)][NMeNle][NMeNle]LCG-NH2; thioether N-14) | 24

The next lines start with the values.

IC50 [nM] | SMILES
4.4 | CCCC[C@H]1C(=O)N(C)[C@@H](CCCC)C(=O)N[C@@H](CC(C)C)C(=O)N[C@H](C(=O)NCC(N)=O)CSCC(=O)N[C@@H](Cc2ccc(O)cc2)C(=O)N(C)[C@@H](C)C(=O)N[C@@H](CC(N)=O)C(=O)N2CCC[C@H]2C(=O)N[C@@H](CNC(=O)N[C@H](C)c2ccccc2)C(=O)N[C@@H](CC(C)C)C(=O)N2C[C@H](O)C[C@H]2C(=O)N[C@@H](Cc2c[nH]c3ccccc23)C(=O)N[C@@H](CCN)C(=O)N[C@@H](Cc2cn(CC(=O)O)c3ccccc23)C(=O)N1C [Example 1041] ({CH2CO}-Y[NMeA]NP[Dap]([CO-NH(1R-phenylethyl)])L[Hyp]W[Dab][Trp(1-CH2COOH)][NMeNle][NMeNle]LCG-NH2; thioether N-14)
2.6 | CCCC[C@H]1C(=O)N(C)[C@@H](CCCC)C(=O)N[C@@H](CC(C)C)C(=O)N[C@H](C(=O)NCC(N)=O)CSCC(=O)N[C@@H](Cc2ccc(O)cc2)C(=O)N(C)[C@@H](C)C(=O)N[C@@H](CC(N)=O)C(=O)N2CCC[C@H]2C(=O)N[C@@H](CNC(=O)C(F)(F)F)C(=O)N[C@@H](CC(C)C)C(=O)N2C[C@H](O)C[C@H]2C(=O)N[C@@H](Cc2c[nH]c3ccccc23)C(=O)N[C@@H](CCN)C(=O)N[C@@H](Cc2cn(CC(=O)O)c3ccccc23)C(=O)N1C [Example 1046] ({CH2CO}-Y[NMeA]NP[Dap](Tfa)L[Hyp]W[Dab][Trp(1-CH2COOH)][NMeNle][NMeNle]LCG-NH2; thioether N-14)
52 | CCCC[C@H]1C(=O)N(C)[C@@H](CCCC)C(=O)N[C@@H](CC(C)C)C(=O)N(C)[C@H](C(N)=O)CSCC(=O)N[C@@H](Cc2ccc(F)cc2)C(=O)N2CCCC[C@H]2C(=O)N[C@@H](CC(=O)N(C)C)C(=O)N2CCC[C@H]2C(=O)N[C@@H](Cc2c[nH]cn2)C(=O)N[C@@H](CC(C)C)C(=O)N2C[C@H](O)C[C@H]2C(=O)N[C@@H](Cc2c[nH]c3ccccc23)C(=O)N[C@@H](CO)C(=O)N[C@@H](Cc2cn(CC(=O)O)c3ccccc23)C(=O)N1C [Example 10002] ({CH2CO}-[Phe(4-F)][Pip]D(NMe2)PHL[Hyp]WS[Trp(1-CH2COOH)][NMeNle][NMeNle]L[NMeC]-NH2; thioether N-14)
12 | CCCC[C@H]1C(=O)N(C)[C@@H](CCCC)C(=O)N[C@@H](CC(C)C)C(=O)N(C)[C@H](C(N)=O)CSCC(=O)N[C@@H](Cc2ccc(F)cc2)C(=O)N2CCCC[C@H]2C(=O)N[C@@H](CC(=O)O)C(=O)N2CCC[C@H]2C(=O)N[C@@H](CN)C(=O)N[C@@H](CC(C)C)C(=O)N2C[C@H](O)C[C@H]2C(=O)N[C@@H](Cc2c[nH]c3ccccc23)C(=O)N[C@@H](CCN)C(=O)N[C@@H](Cc2cn(CC(=O)O)c3ccccc23)C(=O)N1C [Example 10003] ({CH2CO}-[Phe(4-F)][Pip]DP[Dap]L[Hyp]W[Dab][Trp(1-CH2COOH)][NMeNle][NMeNle]L[NMeC]-NH2; thioether N-14)
11 | CCCC[C@H]1C(=O)N(C)[C@@H](CCCC)C(=O)N[C@@H](CC(C)C)C(=O)N(C)[C@H](C(N)=O)CSCC(=O)N[C@@H](Cc2ccc(F)cc2)C(=O)N2CCCC[C@H]2C(=O)N[C@@H](CC(=O)O)C(=O)N2CCC[C@H]2C(=O)N[C@@H](Cc2c[nH]cn2)C(=O)N[C@@H](CC(C)C)C(=O)N2C[C@H](O)C[C@H]2C(=O)N[C@@H](Cc2c[nH]c3ccccc23)C(=O)N[C@@H](CO)C(=O)N[C@@H](Cc2cn(CC(=O)O)c3ccccc23)C(=O)N1C [Example 10004] ({CH2CO}-[Phe(4-F)][Pip]DPHL[Hyp]WS[Trp(1-CH2COOH)][NMeNle][NMeNle]L[NMeC]-NH2; thioether N-14)
